Experimental data from ChEMBL document CHEMBL5653631, “A Potent and Selective ULK1 Inhibitor Suppresses Autophagy and Sensitizes Cancer Cells to Nutrient Stress” (iScience, 2018).

How the values were obtained:
[1] = molecular target: T1, Tyrosine-protein kinase receptor TYRO3 (Homo sapiens) (UniProt Q06418); assay: Inhibition of human recombinant TYRO3 at 15 nM related to control ULK1
T1 sequence (whole entry): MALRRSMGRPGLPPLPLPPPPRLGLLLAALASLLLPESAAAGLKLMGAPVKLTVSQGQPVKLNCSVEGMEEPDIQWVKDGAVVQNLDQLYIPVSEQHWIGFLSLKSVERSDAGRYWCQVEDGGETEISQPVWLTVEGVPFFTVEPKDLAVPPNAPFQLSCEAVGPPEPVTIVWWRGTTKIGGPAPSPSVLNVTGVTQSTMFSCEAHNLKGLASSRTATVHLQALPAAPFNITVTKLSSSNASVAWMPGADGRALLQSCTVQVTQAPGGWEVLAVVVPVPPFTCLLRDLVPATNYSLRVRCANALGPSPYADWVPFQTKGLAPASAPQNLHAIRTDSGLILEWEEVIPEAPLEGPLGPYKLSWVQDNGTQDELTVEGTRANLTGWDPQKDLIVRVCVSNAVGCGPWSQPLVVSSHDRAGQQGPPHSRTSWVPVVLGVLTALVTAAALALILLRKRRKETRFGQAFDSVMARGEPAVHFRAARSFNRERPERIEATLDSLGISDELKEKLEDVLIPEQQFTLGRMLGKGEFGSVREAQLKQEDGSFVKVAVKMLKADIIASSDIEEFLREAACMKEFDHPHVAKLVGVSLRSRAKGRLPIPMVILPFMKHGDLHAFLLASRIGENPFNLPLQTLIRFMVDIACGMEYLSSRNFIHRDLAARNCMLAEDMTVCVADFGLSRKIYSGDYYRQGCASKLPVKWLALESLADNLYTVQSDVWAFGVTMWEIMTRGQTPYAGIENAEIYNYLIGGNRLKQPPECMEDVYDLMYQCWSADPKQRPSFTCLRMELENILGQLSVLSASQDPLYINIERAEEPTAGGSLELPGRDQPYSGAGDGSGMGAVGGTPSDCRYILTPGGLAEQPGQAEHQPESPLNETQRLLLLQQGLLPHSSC

[2] = molecular target: Rho-associated protein kinase 1 (Homo sapiens) (UniProt Q13464); assay: Inhibition of human recombinant ROCK1 at 15 nM related to control ULK1
[3] = molecular target: T2, NUAK family SNF1-like kinase 2 (Homo sapiens) (UniProt Q9H093); assay: Inhibition of human recombinant NuaK2 at 15 nM related to control ULK1
T2 sequence (whole entry): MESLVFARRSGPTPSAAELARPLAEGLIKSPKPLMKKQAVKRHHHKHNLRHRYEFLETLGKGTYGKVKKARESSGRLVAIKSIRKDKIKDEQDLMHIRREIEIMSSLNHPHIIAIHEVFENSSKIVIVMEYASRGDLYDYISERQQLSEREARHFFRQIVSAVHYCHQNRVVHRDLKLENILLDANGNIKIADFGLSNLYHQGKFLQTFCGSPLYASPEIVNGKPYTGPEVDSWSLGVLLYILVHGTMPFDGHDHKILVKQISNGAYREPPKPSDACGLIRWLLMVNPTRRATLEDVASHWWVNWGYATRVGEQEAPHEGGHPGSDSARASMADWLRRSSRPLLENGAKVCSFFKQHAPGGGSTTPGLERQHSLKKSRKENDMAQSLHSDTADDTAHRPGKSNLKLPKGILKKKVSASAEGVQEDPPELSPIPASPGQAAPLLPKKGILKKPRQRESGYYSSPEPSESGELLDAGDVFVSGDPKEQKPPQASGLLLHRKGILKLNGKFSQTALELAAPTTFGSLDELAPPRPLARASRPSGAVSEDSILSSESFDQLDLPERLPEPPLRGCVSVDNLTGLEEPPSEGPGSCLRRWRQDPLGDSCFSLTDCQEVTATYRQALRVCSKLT

[4] = molecular target: T3, cGMP-dependent protein kinase 1 (Homo sapiens) (UniProt Q13976); assay: Inhibition of human recombinant PKG1 at 15 nM in presence of ATP by radiometric assay relative to control
T3 sequence (whole entry): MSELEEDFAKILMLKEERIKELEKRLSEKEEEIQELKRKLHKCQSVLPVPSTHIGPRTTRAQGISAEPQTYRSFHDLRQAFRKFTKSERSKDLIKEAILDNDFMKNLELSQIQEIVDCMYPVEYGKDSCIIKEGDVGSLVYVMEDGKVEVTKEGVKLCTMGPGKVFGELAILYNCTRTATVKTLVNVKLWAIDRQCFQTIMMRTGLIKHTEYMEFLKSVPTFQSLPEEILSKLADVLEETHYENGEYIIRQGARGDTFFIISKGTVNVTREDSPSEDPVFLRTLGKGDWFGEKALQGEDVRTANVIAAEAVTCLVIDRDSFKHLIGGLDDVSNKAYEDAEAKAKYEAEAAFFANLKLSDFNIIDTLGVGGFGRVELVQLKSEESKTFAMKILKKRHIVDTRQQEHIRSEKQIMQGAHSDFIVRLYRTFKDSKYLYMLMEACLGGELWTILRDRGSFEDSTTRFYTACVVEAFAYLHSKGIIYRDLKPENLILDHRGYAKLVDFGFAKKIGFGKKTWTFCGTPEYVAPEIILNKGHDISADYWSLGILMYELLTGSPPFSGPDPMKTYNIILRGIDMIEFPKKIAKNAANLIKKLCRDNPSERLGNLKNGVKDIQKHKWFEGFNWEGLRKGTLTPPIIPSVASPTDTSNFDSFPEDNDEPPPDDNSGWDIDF

[5] = molecular target: Serine/threonine-protein kinase SIK2 (Homo sapiens) (UniProt Q9H0K1); assay: Inhibition of human recombinant QIK at 15 nM in presence of ATP by radiometric assay relative to control
[6] = molecular target: Mitogen-activated protein kinase kinase kinase kinase 4 (Homo sapiens) (UniProt O95819); assay: Inhibition of human recombinant HGK at 500 nM in presence of ATP by radiometric assay relative to control
[7] = molecular target: Insulin-like growth factor 1 receptor (Homo sapiens) (UniProt P08069); assay: Inhibition of human recombinant IGF1R at 500 nM related to control ULK1
[8] = molecular target: Protein-tyrosine kinase 2-beta (Homo sapiens) (UniProt Q14289); assay: Inhibition of human recombinant PYK2 at 500 nM in presence of ATP by radiometric assay relative to control
[9] = molecular target: Transcription initiation factor TFIID subunit 1-like (Homo sapiens) (UniProt Q8IZX4); assay: Inhibition of human recombinant TAF1L at 500 nM related to control ULK1
[10] = molecular target: Calcium/calmodulin-dependent protein kinase kinase 2 (Homo sapiens) (UniProt Q96RR4); assay: Inhibition of human recombinant CaMKK2 at 500 nM in presence of ATP by radiometric assay relative to control
Sequence of Calcium/calmodulin-dependent protein kinase kinase 2 (Homo sapiens) (Q96RR4 2-588 limits assumed): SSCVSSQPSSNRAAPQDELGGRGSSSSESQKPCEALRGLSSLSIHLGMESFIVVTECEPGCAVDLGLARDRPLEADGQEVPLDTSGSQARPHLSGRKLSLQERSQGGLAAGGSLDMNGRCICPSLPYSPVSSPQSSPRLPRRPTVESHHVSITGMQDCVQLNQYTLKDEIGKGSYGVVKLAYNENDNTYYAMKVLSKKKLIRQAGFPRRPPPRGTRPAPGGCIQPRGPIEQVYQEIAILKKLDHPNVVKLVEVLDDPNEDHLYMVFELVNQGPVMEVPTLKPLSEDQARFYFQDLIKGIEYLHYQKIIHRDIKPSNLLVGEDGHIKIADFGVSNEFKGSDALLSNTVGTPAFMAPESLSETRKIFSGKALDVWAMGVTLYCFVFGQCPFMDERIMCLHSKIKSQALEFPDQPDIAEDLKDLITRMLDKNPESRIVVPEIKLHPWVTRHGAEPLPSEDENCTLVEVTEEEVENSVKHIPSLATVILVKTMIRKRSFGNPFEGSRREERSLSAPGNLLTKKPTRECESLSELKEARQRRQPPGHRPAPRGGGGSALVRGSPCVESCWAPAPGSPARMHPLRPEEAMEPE

Sequence of Transcription initiation factor TFIID subunit 1-like (Homo sapiens) (Q8IZX4 whole entry): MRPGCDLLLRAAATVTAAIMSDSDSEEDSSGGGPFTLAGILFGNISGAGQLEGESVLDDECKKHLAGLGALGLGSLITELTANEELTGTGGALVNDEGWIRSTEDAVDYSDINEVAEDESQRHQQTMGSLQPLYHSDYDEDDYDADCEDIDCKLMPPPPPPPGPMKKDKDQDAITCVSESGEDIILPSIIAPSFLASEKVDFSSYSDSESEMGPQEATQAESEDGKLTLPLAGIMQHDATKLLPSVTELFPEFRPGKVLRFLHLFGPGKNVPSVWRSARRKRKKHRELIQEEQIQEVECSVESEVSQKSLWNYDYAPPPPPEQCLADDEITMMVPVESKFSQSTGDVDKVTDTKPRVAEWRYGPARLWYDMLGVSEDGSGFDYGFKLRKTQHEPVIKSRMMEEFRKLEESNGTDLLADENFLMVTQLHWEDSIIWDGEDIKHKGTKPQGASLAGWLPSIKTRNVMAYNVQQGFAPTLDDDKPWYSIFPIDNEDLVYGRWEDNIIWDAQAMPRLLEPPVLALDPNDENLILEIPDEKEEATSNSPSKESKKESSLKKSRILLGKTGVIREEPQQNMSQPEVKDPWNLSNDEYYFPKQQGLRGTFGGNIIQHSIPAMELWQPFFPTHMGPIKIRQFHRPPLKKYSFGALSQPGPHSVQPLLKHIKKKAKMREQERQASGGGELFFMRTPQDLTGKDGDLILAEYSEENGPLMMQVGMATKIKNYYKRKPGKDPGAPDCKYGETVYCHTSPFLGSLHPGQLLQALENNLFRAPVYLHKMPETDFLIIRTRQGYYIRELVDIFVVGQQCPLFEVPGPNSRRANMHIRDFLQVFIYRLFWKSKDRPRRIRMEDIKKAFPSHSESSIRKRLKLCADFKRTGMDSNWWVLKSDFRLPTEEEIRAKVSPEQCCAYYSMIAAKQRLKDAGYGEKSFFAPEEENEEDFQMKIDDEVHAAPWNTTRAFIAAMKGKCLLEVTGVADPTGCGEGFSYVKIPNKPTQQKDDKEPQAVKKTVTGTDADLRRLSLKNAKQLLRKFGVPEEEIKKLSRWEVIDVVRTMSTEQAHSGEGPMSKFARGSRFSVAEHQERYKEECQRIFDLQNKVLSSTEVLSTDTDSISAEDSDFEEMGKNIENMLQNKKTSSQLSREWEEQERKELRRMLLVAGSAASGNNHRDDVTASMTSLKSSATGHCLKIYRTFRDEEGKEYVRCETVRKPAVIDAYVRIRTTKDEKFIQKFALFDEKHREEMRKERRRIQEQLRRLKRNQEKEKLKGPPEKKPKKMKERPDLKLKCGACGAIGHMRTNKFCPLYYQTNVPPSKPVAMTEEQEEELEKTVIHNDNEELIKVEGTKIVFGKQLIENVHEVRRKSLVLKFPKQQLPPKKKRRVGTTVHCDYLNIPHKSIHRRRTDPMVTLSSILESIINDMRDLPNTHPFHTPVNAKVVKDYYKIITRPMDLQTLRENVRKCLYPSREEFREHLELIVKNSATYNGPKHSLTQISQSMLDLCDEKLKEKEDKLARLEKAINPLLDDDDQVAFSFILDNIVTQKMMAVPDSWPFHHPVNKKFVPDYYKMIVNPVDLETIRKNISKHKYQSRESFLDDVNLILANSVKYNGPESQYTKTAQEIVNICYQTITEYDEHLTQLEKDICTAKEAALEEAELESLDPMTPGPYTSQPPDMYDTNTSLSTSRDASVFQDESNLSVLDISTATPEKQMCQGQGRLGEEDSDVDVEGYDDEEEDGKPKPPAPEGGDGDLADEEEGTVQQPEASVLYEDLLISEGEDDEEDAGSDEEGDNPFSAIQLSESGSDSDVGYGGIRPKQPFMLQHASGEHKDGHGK
Sequence of Serine/threonine-protein kinase SIK2 (Homo sapiens) (Q9H0K1 whole entry, looked up): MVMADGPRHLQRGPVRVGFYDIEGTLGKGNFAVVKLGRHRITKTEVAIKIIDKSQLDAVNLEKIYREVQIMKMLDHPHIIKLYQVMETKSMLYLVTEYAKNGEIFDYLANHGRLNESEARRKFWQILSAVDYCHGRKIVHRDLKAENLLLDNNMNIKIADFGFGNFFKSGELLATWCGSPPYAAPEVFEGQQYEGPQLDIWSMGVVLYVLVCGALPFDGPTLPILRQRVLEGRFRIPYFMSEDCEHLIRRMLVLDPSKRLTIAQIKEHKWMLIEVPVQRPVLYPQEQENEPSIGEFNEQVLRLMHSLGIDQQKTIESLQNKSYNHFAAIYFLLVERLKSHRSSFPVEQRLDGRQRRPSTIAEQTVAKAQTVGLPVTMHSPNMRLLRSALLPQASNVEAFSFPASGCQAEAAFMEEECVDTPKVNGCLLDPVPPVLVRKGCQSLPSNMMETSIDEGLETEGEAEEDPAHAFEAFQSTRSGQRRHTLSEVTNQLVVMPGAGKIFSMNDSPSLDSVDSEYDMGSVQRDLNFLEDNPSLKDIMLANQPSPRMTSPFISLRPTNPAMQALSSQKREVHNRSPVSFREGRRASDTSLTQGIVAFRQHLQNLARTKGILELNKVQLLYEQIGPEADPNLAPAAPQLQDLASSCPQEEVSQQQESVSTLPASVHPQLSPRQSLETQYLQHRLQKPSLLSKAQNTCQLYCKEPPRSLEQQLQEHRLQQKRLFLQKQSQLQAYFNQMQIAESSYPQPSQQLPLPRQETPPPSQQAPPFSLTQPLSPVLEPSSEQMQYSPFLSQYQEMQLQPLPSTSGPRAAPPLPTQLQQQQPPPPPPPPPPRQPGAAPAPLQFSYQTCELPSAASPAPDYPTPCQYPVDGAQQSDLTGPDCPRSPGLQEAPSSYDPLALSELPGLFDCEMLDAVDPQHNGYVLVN
Sequence of Insulin-like growth factor 1 receptor (Homo sapiens) (P08069 31-736 limits assumed): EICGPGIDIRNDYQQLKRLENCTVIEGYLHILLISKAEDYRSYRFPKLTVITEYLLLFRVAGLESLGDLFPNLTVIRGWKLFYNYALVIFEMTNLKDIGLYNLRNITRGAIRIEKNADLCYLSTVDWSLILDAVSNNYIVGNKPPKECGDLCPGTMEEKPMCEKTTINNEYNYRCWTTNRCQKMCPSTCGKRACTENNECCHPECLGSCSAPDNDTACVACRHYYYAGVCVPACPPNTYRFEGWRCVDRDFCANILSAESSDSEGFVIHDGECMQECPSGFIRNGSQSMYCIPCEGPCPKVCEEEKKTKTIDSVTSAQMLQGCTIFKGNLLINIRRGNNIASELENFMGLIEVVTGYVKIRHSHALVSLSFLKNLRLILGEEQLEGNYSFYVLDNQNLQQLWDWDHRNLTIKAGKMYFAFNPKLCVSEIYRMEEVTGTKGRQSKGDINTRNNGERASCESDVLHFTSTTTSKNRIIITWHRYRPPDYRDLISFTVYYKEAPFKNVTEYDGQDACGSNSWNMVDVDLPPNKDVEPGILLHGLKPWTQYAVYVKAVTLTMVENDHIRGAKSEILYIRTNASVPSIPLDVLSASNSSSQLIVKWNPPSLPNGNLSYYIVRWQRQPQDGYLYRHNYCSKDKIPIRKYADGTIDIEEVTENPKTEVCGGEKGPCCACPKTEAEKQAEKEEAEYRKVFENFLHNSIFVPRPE
Sequence of Insulin-like growth factor 1 receptor (Homo sapiens) (P08069 741-1367 limits assumed): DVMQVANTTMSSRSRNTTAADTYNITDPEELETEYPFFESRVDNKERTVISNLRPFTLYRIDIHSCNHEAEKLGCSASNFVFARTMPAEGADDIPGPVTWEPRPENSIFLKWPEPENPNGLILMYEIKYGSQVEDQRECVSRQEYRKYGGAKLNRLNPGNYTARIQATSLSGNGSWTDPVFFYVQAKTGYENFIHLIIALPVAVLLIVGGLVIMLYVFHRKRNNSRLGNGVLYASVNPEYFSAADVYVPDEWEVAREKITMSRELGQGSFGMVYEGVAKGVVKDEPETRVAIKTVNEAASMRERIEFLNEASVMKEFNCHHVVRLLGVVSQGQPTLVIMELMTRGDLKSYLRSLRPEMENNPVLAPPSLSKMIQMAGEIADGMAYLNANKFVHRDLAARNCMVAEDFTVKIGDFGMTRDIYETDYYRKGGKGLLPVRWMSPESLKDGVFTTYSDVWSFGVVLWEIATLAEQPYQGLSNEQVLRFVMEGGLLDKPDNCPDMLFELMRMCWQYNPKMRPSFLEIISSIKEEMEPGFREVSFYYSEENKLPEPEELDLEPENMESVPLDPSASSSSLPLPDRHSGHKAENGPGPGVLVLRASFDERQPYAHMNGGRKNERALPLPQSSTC

CC(C)[C@H](NC(=O)c1cc(-c2cnn3cc(-c4ccc(OCCN5CCCCC5)cc4)cnc23)cs1)C(F)(F)F
fold change (FC) [1]: 0 | fold change (FC) [2]: 0.09 | fold change (FC) [3]: 0.2 | inhibition [4]: 0% | inhibition [5]: 90%

CNC(=O)c1ccccc1Oc1nc(Nc2cc(OC)c(OC)c(OC)c2)ncc1Br
inhibition [6]: 0% | fold change (FC) [7]: 0.04 | inhibition [8]: 53% | fold change (FC) [9]: 0 | inhibition [10]: 4%
